Data on eight molecules can be found in patent US20070202188A1, “Use of alkene carboxlic acid n alkylamides as flavouring agents” (priority 2003, published 2007).

The subject of one series is group of 6-8 testers. The series can be described thus: Sensorial evaluation (tasting of sugar solution by a group of testers). It counts as in vivo. Particulars: approx. 5 ml swallowed. As for the experimental part: The substance to be tasted (see below) was dissolved in ethanol and the ethanolic solution was then diluted with 11% strength sugar solution (final concentration: c). For tasting, in each case approx. 5 ml of the sugar solution was swallowed. If the threshold value of the substance was known, a value just above the threshold value was chosen for the tasting. A group of 6-8 testers tasted the solutions.

The next series has as its system oral cavity. Particulars: in vivo; cited from earlier work.
In another series the test system is mouse. As to conditions: mouse oral; cited from earlier work.
The conditions of series [1]: cited from earlier work.
For another series, the system named is mouth. Particulars: in vivo; cited from earlier work.
Setting [2] is: c=10 ppm in 11% strength sugar solution.

With “2E-decenoic acid N-(2-methylbutyl)amide [Example 2]”, in the series on group of 6-8 testers (setting [2]), the sensorial profile entry is on record as “slightly piquant, saliva-promoting, tingling, mild heat sensation”.

On to 2E-tetradecenoic acid N-isobutylamide, for which the “sensorial effect described in the literature” value in the series with oral cavity was “no piquant taste was found”.

As for “3E-nonenoic acid N-isobutylamide [Example 3]”, the sensorial profile result in the series with group of 6-8 testers (setting [2]) is “anaesthetizing, piquant taste builds up, impression of sweet palmond, slightly bitter”.

As to `CCCCC/C=C/C=C/C(=O)NCC(C)C` [2E,4E-decadienoic acid N-isobutylamide], the sensorial profile result in the series on group of 6-8 testers (setting [2]) was “saliva-promoting, fatty, fruity, slightly tingling, slightly piquant”. The “sensorial effect described in the literature” value with oral cavity is listed as “chiefly shows an anaesthetizing effect”.

Consider `CCCCCC/C=C/CC(=O)NCC(C)C` [Example 4, 3E-decenoic acid N-isobutylamide], for which, in the series with group of 6-8 testers (setting [2]), the sensorial profile entry is on record as “tickling piquant taste, builds up slowly in the pharynx, slightly bitter”.

In the case of `COc1cc(CNC(=O)CCCC/C=C/C(C)C)ccc1O` [capsaicin, N-(4-hydroxy-3-methoxybenzyl)-8-methyl-(6E)-nonenoic acid amid], the LD50 in the series on mouse was 47 mg. The “damage with frequent use and overdose” value in series [1] was “chronic gastritis and kidney and liver damage”.

For the molecule `COc1cc(CNC(=O)CCCCCCC(C)C)ccc1O` [dihydrocapsaicin], the sensorial profile result with group of 6-8 testers (c=100 ppb in 11% strength sugar solution) was “action starts with a slight delay in the pharyngeal cavity, aggressive, burning piquant taste (chilli, slight evolution of heat)”.

For the molecule `O=C(/C=C/C=C/c1ccc2c(c1)OCO2)N1CCCCC1` [piperine, 1-piperoylpiperidine], in the series on mouth, the intrinsic taste result was “intensive intrinsic taste reminiscent of pepper” and the “relative piquant taste compared with capsaicin” value was “approx. 1%”.
